How the values were obtained:
[1] = Reversal of ABCC1-mediated multidrug resistance in human NCI-H69AR cells assessed as increase in doxorubicin-mediated cytotoxicity incubated for 72 hrs in presence of doxorubicin by MTT assay
[2] = Reversal of ABCG2 (unknown origin)-mediated multidrug resistance transfected in dog MDCK-II-BCRP cells assessed as increase in SN-38-mediated cytotoxicity incubated for 72 hrs in presence of SN-38 by MTT assay
[3] = Reversal of ABCB1-mediated multidrug resistance in human A2780 ADR cells assessed as increase in doxorubicin-mediated cytotoxicity incubated for 72 hrs in presence of doxorubicin by MTT assay
[4] = Inhibition of MCT-1 in human A549 cells assessed as potentiation of 3-BP-mediated cytotoxicity by measuring decrease in cell viability incubated for 72 hrs in presence of 3-BP by MTT assay

Structure (SMILES)	EC50 [1]	EC50 [2]	EC50 [3]	IC50 [4]
O=C(Cn1nc(C(=O)Nc2ccccn2)c2ccccc21)Nc1cc(Cl)ccc1Cl	33.1 µM	0.326 µM	0.089 µM	1.89 µM
O=C(Cn1nc(C(=O)Nc2cccnc2)c2ccccc21)Nc1ccc(Cl)cc1	6.86 µM	1.05 µM	4.67 µM	3.32 µM
COc1cccc(NC(=O)c2nn(CC(=O)Nc3ccccc3OC)c3ccccc23)c1	5.53 µM	0.603 µM	3.34 µM	
COc1cccc(NC(=O)Cn2nc(C(=O)Nc3cccc(OC)c3)c3ccccc32)c1	8.55 µM		2.01 µM	
